Assays:
[1] = system: endogenous target monocytes in human PBMC; experiment: PBMC ex vivo monocyte depletion flow cytometry assay (Example 200); assay type: cell-based; details: with anti-cotinine antibody SEQ ID NO: 11/12, 18-24 hours, read-out: Ex Vivo Depletion Assay pEC50 (converted)
Experimental: A human PBMC (peripheral blood mononuclear cells) monocyte depletion flow cytometry assay was developed to screen compounds in a 384-well plate format. This assay incorporated endogenous natural killer cells to deplete endogenous target monocytes.
To screen compounds in the human PBMC monocyte depletion flow cytometry assay, 11-point dose-response curves were made from 1 mM stocks in neat DMSO by serially diluting an ARM compound of Formula (I) four-fold into a 384-well plate row-wise. These serially diluted compounds were then stamped into a flat bottom polypropylene 384-well plate (Greiner Bio-One) at 100 nL/well. Fifty microliters of 30 μg/mL anti-cotinine antibody having a heavy chain sequence of SEQ ID NO: 11 and a light chain sequence of SEQ ID NO: 12 (rabbit variable region with human IgG1 Fc domain containing a DE mutation (S239D/1332E)) that had been diluted in assay medium (RPMI 1640 (Gibco) containing 10% fetal bovine serum (Gibco), 1% Glutamax (Gibco) and 1% sodium pyruvate (Corning) was added to the wells of the plate. The plate was centrifuged for 1 min at 500 rpm (revolutions per minute) and then shaken for 5 min at room temperature. The plate was incubated for 15 minutes at 37° C./5% CO2.
Frozen PBMC cells (HemaCare BioResearch) were thawed and centrifuged at 1,200 rpm for 4 minutes. The cells were diluted to a cell density of 2×10^6 cells/mL in assay medium. Fifty microliters of the diluted cells were added to the wells of the plate. The plate was centrifuged for 1 min at 500 rpm and incubated for 18-24 hours at 37° C./5% CO2.
After 18-24 hours incubation, 2 μL of 6.25 μg human FC block (BD Pharmingen) that was diluted in assay medium was added to the wells of the plate. The plate was centrifuged for 1 minute at 500 rpm and then incubated at room temperature for 15 minutes. Five microliters of 750 nM Helix NP NIR (Biolegend) that had been diluted in assay medium was added to the wells of the plate. Nine microliters of antibody cocktail containing 1/5 diluted fluorescein isothiocyanate (FITC) labeled anti-CD45 antibody (Beckman Coulter), PC7 labeled anti-CD14 antibody (Beckman Coulter) and phycoerythrin (PE) anti-CD4 antibody (Beckman Coulter) was then added to the wells of the plate. The plate was centrifuged for 1 min at 500 rpm and incubated for 30 minutes at 4-8° C. Samples from the plate were run on BD FACS Canto II flow cytometer and data was analyzed using FlowJo software.
ARMs compounds of Formula (I) of the invention were tested for the ability to deplete monocytes in the above assay in one or more experimental runs and the results are shown in Table 3 below. Potency of the compounds of the invention is reported as a pEC50 value. The pEC50 value is the negative log of the EC50 value, wherein the EC50 value is the half maximal effective concentration measured in molar (M). For compounds tested in more than one experimental run, the pEC50 value is reported as an average or as the individual values measured

[2] = system: CCR2+ expressing cells; experiment: Alternative dosing strategy of ARM compound to anti-cotinine antibody, blood concentration and CCR2+ cell depletion (Example 206); assay type: in vivo; details: co-dosing vs sequential dosing with anti-cotinine antibody, intravenously
Excerpt: FIGS. 3A-3B: Alternative dosing strategy of small molecule ARM compound to anti-cotinine antibody, as described in Example 206, with anti-cotinine antibody and small molecule ARM compound (Example 1) co-dosed or sequentially dosed intravenously;
FIG. 5: Alternative dosing strategy of small molecule ARM compound to anti-cotinine antibody, as described in Example 206, with anti-cotinine antibody administered intravenously and ARM compound (Example 1) administered subcutaneously following a 2-hour delay from antibody dosing at various molar ratios of small molecule ARM: antibody; data shown is blood concentration of small molecule ARM compound at various timepoints following administration.

| Structure (SMILES) | EC50 [1] [nM] | PD (percent depletion of CCR2+ expressing cells) [2] | PK (blood concentration of small molecule ARM compound) [2] |
| --- | --- | --- | --- |
| CN1C(=O)C[C@H](C(=O)NCCOCCOCCOCCOCCOCCOCCC(=O)N[C@@H]2C[C@H](NC(C)(C)C)CC[C@@H]2N2CC[C@H](Nc3ncnc4ccc(C(F)(F)F)cc34)C2=O)[C@H]1c1cccnc1 [Example 38] | 1.58 | – | – |
| CN1C(=O)C[C@H](C(=O)NCCOCCOCCOCCOCCOCCC(=O)N[C@@H]2C[C@H](NC(C)(C)C)CC[C@@H]2N2CC[C@H](Nc3ncnc4ccc(C(F)(F)F)cc34)C2=O)[C@H]1c1cccnc1 [Example 37] | 5.01 | – | – |
| CC(C)N(C)[C@@H]1CC[C@H](N2CC[C@H](Nc3ncnc4ccc(C(F)(F)F)cc34)C2=O)[C@H](NC(=O)[C@H]2CC[C@H](NC(=O)CCCO[C@H]3CC[C@H](OCCNC(=O)[C@H]4CC(=O)N(C)[C@@H]4c4cccnc4)CC3)CC2)C1 [Example 1, (2S,3S)-N-(2-(((1R,4S)-4-(4-(((1R,4R)-4-(((1R,2S,5R)-5-(Isopropyl(methyl)amino)-2-((S)-2-oxo-3-((6-(trifluoromethyl)quinazolin-4-yl)amino)pyrrolidin-1-yl)cyclohexyl)carbamoyl)cyclohexyl)amino)-4-oxobutoxy)cyclohexyl)oxy)ethyl)-1-methyl-5-oxo-2-(pyridin-3-yl)pyrrolidine-3-carboxamide] | – | unchanged | unchanged |

From patent publication US20250136722A1, “CYTOTOXICITY TARGETING CHIMERAS” (GLAXOSMITHKLINE INTELLECTUAL PROPERTY DEVELOPMENT LIMITED, priority 2021, published 2025)
